The subject of the test is scalp of dandruff and non-dandruff subjects. The test is described as follows: Metabolite expression profiling (LC/MS/MS, GC/MS/MS) of scalp D-Squame tape strip extracts: non-dandruff, dandruff baseline, dandruff after 3 weeks anti-dandruff shampoo. The class given is in vivo, human. As to conditions: for Fold Change Wk 3 Sel vs Dandruff Baseline / Fold Change Wk 3 ZPT vs Dandruff Baseline / Fold Change Wk 3 ZPT vs Non-Dan Baseline / Fold Change Wk 3 Sel vs Non-Dan Baseline: metabolite level in scalp tape strips; for Fold Change Wk 3 Sel vs Dandruff Baseline / Fold Change Wk 3 ZPT vs Dandruff Baseline: standardized to soluble protein; for Fold Change Wk 3 Sel vs Dandruff Baseline: dandruff subjects after 3 weeks 1% selenium sulfide shampoo vs own baseline; for Fold Change Wk 3 ZPT vs Dandruff Baseline: dandruff subjects after 3 weeks 1% zinc pyrithione shampoo vs own baseline; for Fold Change Wk 3 ZPT vs Non-Dan Baseline: dandruff subjects after 3 weeks 1% ZPT shampoo vs non-dandruff subjects; for Fold Change Wk 3 Sel vs Non-Dan Baseline: dandruff subjects after 3 weeks 1% selenium sulfide shampoo vs non-dandruff subjects. An excerpt:
In an embodiment, the use of an adhesive device can be used to achieve such sampling. In preparation for such a sampling study for a dandruff sampling, at a baseline visit, a qualified screening grader will complete adherent scalp flaking score (ASFS) grading for each subject and the highest flaking octant will be identified for tape strip sampling. The highest flaking octant will be sampled at baseline and at various time points during and after treatment with product. Tape strips samples will be collected from each subject at each time point (e.g., baseline and week 3).
The tape strip sampling procedure is repeated additional times, as needed, at the same site placing each D-Squame® tape disc on top of the prior sampled area. The D-Squame® tapes after sample collection are placed into the appropriately labeled wells in a labeled plate.
Following the sampling, an extraction and quantitation procedure is conducted. In an embodiment of the present invention, quantitation of small molecules from extracts of D-Squame® Tape Samples can be conducted via analysis by either LC/MS/MS or GC/MS/MS. In this embodiment of the present invention, the sample extraction in preparation for Metabolite expression profiling technology was performed.
The D-Squame® tape sample plates are removed from −80° C. freezer where they are stored following sample collection, and placed on dry ice. The tape strips are inserted into pre-labeled polypropylene collection tubes, adhesive side facing inward. Extraction buffer containing methanol and water is added to each collection tube and then extracted on ice using sonication for 15 min. If necessary, additional tapes are placed in the collection tube containing the extract solution and the extraction process is repeated as a means of concentrating the sample. Each extract solution is isolated from the tape strip and an aliquot of each sample is placed into a pre-labeled polypropylene collection tubes and frozen at −80° C. for metabolite expression profiling analysis. A separate aliquot is specified for soluble protein analysis using a BCA™ Protein Assay Kit. For this analysis, the aliquot consisting of methanol and water is taken to dryness under a gentle stream of nitrogen. The sample is resuspended in an appropriate aqueous buffer (e.g., PBS/SDS (1× PBS+0.2% SDS) and analyzed for soluble protein.
The extracts are analyzed by GC/MS/MS and LC/MS/MS in positive and negative ion mode. Chromatographic separation followed by full scan mass spectra and MS/MS spectra is carried out to record and quantify all detectable ions present in the samples. Metabolites with known chemical structure can be identified by matching the ions' chromatographic retention index and mass spectra fragmentation signatures with reference library entries created from authentic standard metabolites under the identical analytical procedure as the experimental samples. Welch's Two Sample t-tests and matched-pair t-tests are used to analyze the data. […] The statistical analyses are performed on natural log-transformed data to reduce the effect of any potential outliers in the data. Welch's Two Sample t-test comparisons are made between the means of each biochemical from the various groups listed at the top of the tables and are calculated using either or both of the statistical analysis software programs: Array Studio (Omicsoft, Inc) or “R” from the Free Software Foundation, Inc.
Subjects are evaluated by a qualified grader to establish their scalp status. Dandruff subjects are identified by their level of visible flaking as assessed by a qualified grader. Non-dandruff healthy scalp subjects are evaluated at baseline to establish normalized levels of each biomarker. In this study, there are 60 non-dandruff subjects that are evaluated at baseline. […] They are evaluated at baseline, and after 3 weeks of product usage.

The mark [1] stands for this setting: dandruff subjects after 3 weeks treatment with Sel shampoo, metabolite level in scalp tape strip extract.
Setting [2] is: dandruff subjects after 3 weeks treatment with ZPT shampoo, metabolite level in scalp tape strip extract.
The mark [3] stands for this setting: relative metabolite level in scalp tape strips, dandruff subjects after 3 weeks 1% ZPT shampoo.
Setting [4] is: relative metabolite level in scalp tape strips, dandruff subjects after 3 weeks 1% selenium sulfide shampoo.

Marks after values point to notes of the source that are not given here. Peptide text beside a SMILES is read from it.

`O=P(O)(O)OCC(O)CO` (stereo not drawn) [glycerol 3-phosphate (G3P)]: the “Mean Values WEEK 3 TRT Sel” value under setting [1] was 0.8007. Also, the “Mean Values WEEK 3 TRT ZPT” value under setting [2] turned out to be 0.5943.
On to `O=C(O)CCc1cnc[nH]1` [imidazole propionate], for which the “Mean Values WEEK 3 TRT ZPT” value under setting [3] stood at 0.8095. The “Mean Values WEEK 3 TRT Sel” value under setting [4] turned out to be 0.7836.
With `CC(C)CCCCCCCCCCCCC(=O)O` [isopalmitic acid], the “Fold Change Wk 3 Sel vs Dandruff Baseline” value is given as 0.23* fold, the “Fold Change Wk 3 ZPT vs Dandruff Baseline” value was 0.41* fold, the “Fold Change Wk 3 ZPT vs Non-Dan Baseline” value is 0.41* fold and the “Fold Change Wk 3 Sel vs Non-Dan Baseline” value is recorded as 0.24* fold. In addition, the “Mean Values WEEK 3 TRT Sel” value under setting [1] stood at 0.3034. Further, under setting [2], the “Mean Values WEEK 3 TRT ZPT” value is given as 0.5169.
Take `CCCCC/C=C\C/C=C\CCCCCCCC(=O)O` [linoleate (18:2n6), linoleate]: under “after three weeks ZPT shampoo”, the “reduction / decrease of metabolite level vs dandruff baseline” value was 82%. Further, the “decrease of metabolite level vs dandruff baseline” value (after three weeks selenium sulfide shampoo) stood at 78%.
As for `CCCCCCCCCCCCCCCCC(=O)O` [margarate (17:0), margarate], the “Fold Change Wk 3 Sel vs Dandruff Baseline” value is reported as 0.31* fold, the “Fold Change Wk 3 ZPT vs Dandruff Baseline” value is on record as 0.6*** fold, the “Fold Change Wk 3 ZPT vs Non-Dan Baseline” value is reported as 0.45* fold and the “Fold Change Wk 3 Sel vs Non-Dan Baseline” value is 0.25* fold. Besides, the “Mean Values WEEK 3 TRT Sel” value under setting [1] came out at 0.3903. For the same compound, under setting [2], the “Mean Values WEEK 3 TRT ZPT” value turned out to be 0.6953.
For `CCCCCCCCCCCCCCCCCCC(=O)O` [nonadecanoate (19:0), nonadecanoate], the “Fold Change Wk 3 Sel vs Dandruff Baseline” value was 0.29* fold, the “Fold Change Wk 3 ZPT vs Dandruff Baseline” value is 0.47* fold, the “Fold Change Wk 3 ZPT vs Non-Dan Baseline” value was 0.39* fold and the “Fold Change Wk 3 Sel vs Non-Dan Baseline” value was 0.26* fold. Further, the “Mean Values WEEK 3 TRT Sel” value under setting [1] is listed as 0.3608. Under setting [2], the “Mean Values WEEK 3 TRT ZPT” value is 0.5421.
Regarding `CCCCCCCC/C=C\CCCCCCCC(=O)NCCO` [oleic ethanolamide], the “Mean Values WEEK 3 TRT Sel” value under setting [1] turned out to be 1.1213. Besides, the “Mean Values WEEK 3 TRT ZPT” value under setting [2] came out at 1.5447.
For `CCCCCCCCCCCCCCC(=O)O` [pentadecanoate (15:0), pentadecanoate], the “Fold Change Wk 3 Sel vs Dandruff Baseline” value is 0.19* fold, the “Fold Change Wk 3 ZPT vs Dandruff Baseline” value is listed as 0.4* fold, the “Fold Change Wk 3 ZPT vs Non-Dan Baseline” value was 0.37* fold and the “Fold Change Wk 3 Sel vs Non-Dan Baseline” value was 0.19* fold. For the same compound, the “Mean Values WEEK 3 TRT Sel” value under setting [1] is listed as 0.3057. Besides, the “Mean Values WEEK 3 TRT ZPT” value under setting [2] stood at 0.5867.
Consider `CC[C@H](C)[C@H](NC(=O)[C@@H](N)CO)C(=O)O` [serylisoleucine*] (H-Ser-Ile-OH), for which the “Mean Values WEEK 3 TRT Sel” value under setting [1] was 1.1161. In addition, under setting [2], the “Mean Values WEEK 3 TRT ZPT” value worked out at 0.9496.
As for `O=C(O)/C=C/c1cnc[nH]1` [trans-urocanate], the “Fold Change Wk 3 Sel vs Dandruff Baseline” value is 0.74* fold, the “Fold Change Wk 3 ZPT vs Dandruff Baseline” value is on record as 0.87 fold, the “Fold Change Wk 3 ZPT vs Non-Dan Baseline” value is 1.41 fold and the “Fold Change Wk 3 Sel vs Non-Dan Baseline” value was 1.21 fold. The “Mean Values WEEK 3 TRT ZPT” value under setting [3] worked out at 1.0096. In addition, the “Mean Values WEEK 3 TRT Sel” value under setting [4] amounted to 0.8661.
Turning to “Eicosenoate [Eicosenoate (20:1n9 or 11)]”, the “Mean Values WEEK 3 TRT Sel” value under setting [1] is 0.202. The “Mean Values WEEK 3 TRT ZPT” value under setting [2] was determined as 0.3561.
On to dimethylarginine (SDMA + ADMA), for which the “Mean Values WEEK 3 TRT Sel” value under setting [1] is recorded as 0.8338. Further, the “Mean Values WEEK 3 TRT ZPT” value under setting [2] is given as 1.0243.
In the case of “linolenate [alpha or gamma; (18:3n3 or 6)]”, the “Mean Values WEEK 3 TRT ZPT” value under setting [2] was 0.8941.

The values above are taken from patent publication US20140271930A1, “NONINVASIVE METHOD FOR MEASURING METABOLITES FOR SKIN HEALTH” (priority 2013, published 2014).
